Measurements published in patent publication US6057359A, “Spontaneously dispersible concentrates comprising esters of baccatin-III compounds having antitumor and antiviral activity” (Marigen S.A., priority 1997, dated 2000).

Tests used:
[1] = tested on: Py6 cells (Virus transformed 3T3 mouse-fibroblasts); assay: Test of cell toxicity / cytotoxicity of MARIGENOL concentrates on Py6 cells (plaque assay, serial dilution); assay type: cell-based; conditions: for in dilution active up to 1: (microemulsion ME 1:100): dilution of ME 1:100, given in Mio.
Protocol: A biological assay system using microtiter plates and serial dilutions has been developed. Batches of 10^4 tumour cells per ml were set up in culture medium RPMI 1640 and inactivated with 10% of fetal calf serum (GIBCO); they are spread at a density low enough to enable them to grow during the assay, in non-confluent monolayers. Samples are added after 6 to 24 hours, with 100 μl per row, to which 100 μl of medium are added in the first well. Half of this mixture is withdrawn, transferred into the next well and again treated with 100 μl of medium, etc.
[…] They are then stained and fixed using 0.1% crystal violet (Fluka, Buchs) in a solution of 70% of methanol, 1% of formaldehyde and 29% of water. The samples are evaluated under the microscope, magnification 300×. The greatest cytotoxic dilution is determined. The samples can also be evaluated quantitatively by means of scanning and absorption measurement in a spectrophotometer.
N.B.: On the subject of the eternalized Py6-cells cf.: "Biochemistry", Coordinating Editor Geoffrey L. Zubay, Addison-Wesley Publishing Company, 1983, p.1079.

[2] = tested on: Herpes-Virus (Herpes Simplex, HSV); assay: Antiviral/virucidal efficacy against HSV, plaque reduction in VERO cells; assay type: cell-based; conditions: compared to simple medium, 2880 min
Protocol: (§1) The antiviral/virucidal efficacy against HSV of an aqueous microemulsion prepared with appropriate MARIGENOL®-concentrates was assessed on a confluent monolayer culture of VERO cells (i.e. "African green monkey kidney cells"). The host cells were pretreated during 3 h at 4° C. with an inventive microemulsion or with culture medium alone and then infected with HSV at a constant dose of 10^4 plaque forming units (PFU). After virus absorption during 1 h, and subsequent addition of 2% methylcellulose in order to limit virus spreading, cells were cultured in MEM medium+2% foetal calf serum for 48 h, then fixed and stained with 1% crystal violet in methanol. The reduction of viral titre was expressed as percent reduction of plaques of lysis observed in pre-treated cells, compared to controls.
Infection was also detected by IFA at 24 h after inoculation, using a Mab specific for a glycoprotein common to HSV-1/HSV-2 (clone FQ 12, Argene Biosoft, BIOLINE, Torino).
The following test substances were assessed as concentrates in aqueous dilution (starting with a microemulsion 1:100): […]

[3] = tested on: VERO cells; assay: Cell lysis in VERO cell layers; assay type: cell-based, African green monkey; conditions: dilution 1:1'000; plaque reduction table
Protocol: as §1

[4] = tested on: LEUKEMIA K 562; assay: Vitality/proliferation test (Tritium), leukemia K 562; assay type: cell-based, human; conditions: controls 50'037 cpm
Text: (§2) 4.0 Comparative assays with human tumor cell lines
(§3) VITALITY TEST/1%-MARIGENOL-CONCENTRATE
(§4) 1 × 10^4 cells per well
(§5) Proliferation test (Tritium: 1 μCi/well H^+)

[5] = tested on: LEUKEMIA DAUDI-LINE; assay: Vitality/proliferation test (Tritium), leukemia Daudi-line; assay type: cell-based, human; conditions: controls 23'090 cpm
Text: as §2, §3, §4, §5

Structure (SMILES) | in dilution active up to 1: (calculated on active substance content, A.S.) ([1]; 24 h exposure) [Mio.] | in dilution active up to 1: (calculated on active substance content, A.S.) ([1]; 48 h exposure) [Mio.] | in dilution active up to 1: (microemulsion ME 1:100) ([1]; 48 h exposure) [Mio.] | in dilution active up to 1: (calculated on active substance content, A.S.) ([1]; 72 h exposure) [Mio.] | in dilution active up to 1: (microemulsion ME 1:100) ([1]; 72 h exposure) [Mio.] | Percent reduction of plaques in VERO cell monolayers ([2]; dilution 1:10'000) [%] | Percent reduction of plaques in VERO cell monolayers ([2]; dilution 1:100'000) [%] | Cell-Lysis [3] | Proliferation test % ([4]; 10^-3) [%] | Proliferation test cpm ([4]; 10^-3) [cpm] | Proliferation test % ([4]; 10^-4) [%] | Proliferation test cpm ([4]; 10^-4) [cpm] | Proliferation test % ([4]; 10^-5) [%] | Proliferation test % ([5]; 10^-3) [%] | Proliferation test cpm ([5]; 10^-3) [cpm] | Proliferation test % ([5]; 10^-4) [%] | Proliferation test cpm ([5]; 10^-4) [cpm] | Proliferation test % ([5]; 10^-5) [%]
CCCCCCCCCCCC(=O)Oc1ccc(-c2oc3cc(OC(=O)CCCCCCCCCCC)cc(OC(=O)CCCCCCCCCCC)c3c(=O)c2OC(=O)CCCCCCCCCCC)c(OC(=O)CCCCCCCCCCC)c1 [MORIN-PENTA-LAURATE] | 12.8 | 100 | 1 | 100 | 1 |  |  |  |  |  |  |  |  |  |  |  |  | 
CCCCCCCCCCCCCCCCCCCC(=O)O[C@H]1CC[C@@]2(C)C(=CC[C@H]3[C@@H]4CC[C@H]([C@H](C)CC[C@@H](CC)C(C)C)[C@@]4(C)CC[C@@H]32)C1 [β-Sitosteryl-Arachidate, 3β-Stigmast-5-en-3-arachidate] |  |  |  |  |  | 76 | 5 | Cell-Lysis |  |  |  |  |  |  |  |  |  | 
CCCCCCCCCCCC(=O)O[C@H]1C[C@@]2(O)[C@@H](OC(=O)c3ccccc3)[C@@H]3[C@]4(OC(C)=O)CO[C@@H]4C[C@H](OC(=O)CCCCCCCCCCC)[C@@]3(C)C(=O)[C@H](OC(C)=O)C(=C1C)C2(C)C [BACCATIN III-DI-LAURATE, 7,13-Dilauroylbaccatin-III] | 12.8 | 12.8 |  | 25.6 |  |  |  |  | 1.1 | 585 | 1.3 | 651 | 6.1 | 1.4 | 346 | 1.9 | 455 | 38.3
CC(=O)O[C@H]1C(=O)[C@@]2(C)[C@H]([C@H](OC(=O)c3ccccc3)[C@]3(O)C[C@H](OC(=O)[C@H](O)[C@@H](NC(=O)c4ccccc4)c4ccccc4)C(C)=C1C3(C)C)[C@]1(OC(C)=O)CO[C@@H]1C[C@@H]2O [TAXOL-A.S., Taxol (Paclitaxel), reference compound] | 6.4 | 25.6 |  | 25.6 |  |  |  |  | 1.3 | 679 | 1.6 | 830 | 7.1 | 2.3 | 552 | 2.9 | 672 | 69.6
CCCCCCCCCCCC(=O)Oc1cc(OC(=O)CCCCCCCCCCC)c2c(=O)cc(-c3ccccc3)oc2c1 [CHRYSIN-DI-LAURATE] | 12.8 | 51.2 |  | 100 | 1 |  |  |  |  |  |  |  |  |  |  |  |  | 
CCCCCCCCCCCC(=O)O[C@H]1CC[C@@]2(C)C(=CC=C3[C@@H]4CC[C@H]([C@H](C)/C=C/[C@H](C)C(C)C)[C@@]4(C)CC[C@@H]32)C1 [C12:0 -ERGO ESTER (ERGOST. LAURATE), (3β, 22E)-Ergosta-5,7,22-triene-3-ol-laurate] |  |  |  |  |  | 62 | 0 | Cell-Lysis |  |  |  |  |  |  |  |  |  | 
